In patent US10849904B2, “Methods for treatment of retinal disease by photoreceptor gene expression modulation” (University of Washington, priority 2015, dated 2020):
“Also recorded” adds a separate entry of the source.

How the values were obtained:
[1] = test system: intact retinas from P12 wild type mice; assay: P12 mouse retinal explant culture, qPCR for rod gene expression; type: cell-based; conditions: P12 explants; for dose-response, Nrl, Nr2e3, and Rho expression: 2-3 days; for relative rhodopsin (Rho) expression: 1 μM, 2 days
From the text: To identify functional Nr2e3 antagonists, compounds were cheminformatically searched and structural analogs of a putative Nr2e3 interacting compound with unknown function were collected. See FIGS. 2 and 4 for the structures of the compounds. The collected compounds were then screened in a physiologically relevant primary culture assay using intact retinas from postnatal day 12-13 (P12-13) C57BL/6 mice for suppression of Rho expression (See FIG. 6A). After a 2 day culture period with media containing DMSO or compounds at 1 μM, the retinas were collected and assessed Rho expression by qPCR. Rho was chosen because it is a well-described target of Nr2e3 in rod photoreceptors. […] This analysis also provided an initial structure-activity relationship.
Nr2e3 loss-of-function mutations lead to a reduction in rod gene expression. To determine whether the same was true for PR1 (FIG. 6D), explant cultures of P12 retina as above were treated and assayed for other rod photoreceptor genes. After 2 days in culture, PR1 decreased the expression of the rod specific genes Nrl, Nr2e3, Rho, Gnat1, and Pde6b compared to DMSO treatment by qPCR analysis (FIG. 6C). […] To determine the dose-response relationship between PR1 concentration and expression of rod genes, retinas from P12 mice were explanted in media containing DMSO or 0.1, 1, 5, or 10 μM PR1 for 2-3 days and assayed Nrl, Nr2e3, and Rho expression by qPCR. […] PR1 was tested to determine whether it could cause a reduction in Rho expression in human rod photoreceptors as well. Pairs of 113 day post-conception retinas were explanted in media with DMSO or 10 μM PR1 for 7 or 23 days. After 7 and 23 days in culture, PR1 decreased the expression of Rho compared to DMSO treatment (FIG. 6F), similar to the effect observed in mouse retinal explants.
(§1) Intact retinas without RPE from mice of various strains and ages as indicated were explanted on 0.4 μm pore tissue culture inserts (Millipore) as previously described (Ueki, Y., et al., P53 is required for the developmental restriction in Muller glial proliferation in mouse retina. Glia, 2012. 60(10): p. 1579-89; Ueki, Y., et al., A transient wave of BMP signaling in the retina is necessary for Muller glial differentiation. Development, 2015. 142(3): p. 533-43. Full media (DMEM/F12 (1:1) containing 1% dialyzed FBS, 1% Pen Strep, 0.3% D+ glucose, 2% B27, and 1% N2) changes were performed every other day and small molecules were used at 0.1 μM to 10 μM. Where indicated, EdU (Invitrogen) was included in the media at 5 μg/mL and visualized by staining with the Click-iT EdU Alexa Fluor kit (Thermo Fisher Scientific). For human retinal explant cultures, tissue from 113 day post-conception fetuses was obtained from the University of Washington Birth Defects Laboratory and explanted on 0.4 μm pore tissue culture inserts (Millipore) in media (Neurobasal A with 1% FBS, 1% Pen Strep, 1% N2, 1% B27) containing 10 μM Photoregulin1 or an equal volume of DMSO.
RNA was isolated using TRIzol (Invitrogen) and cDNA was synthesized using the iScript cDNA synthesis kit (Bio-Rad) following an intervening DNase treatment with RQ1 RNase-free DNase (Promega). SSO Fast (Bio-Rad) was used for quantitative real-time PCR. For analysis, values were normalized to Gapdh and ΔΔCt between DMSO and compound-treated samples was expressed as percent of DMSO treated controls (100*2^ΔΔCt). Two-way Student's t-tests were performed on ΔCt values.

[2] = test system: Explants from P12 Nrl-eGFP mice; assay: P12 Nrl-eGFP mouse retinal explants, 5 DIV, immunofluorescence and EdU; type: cell-based
Procedure: Previous loss of function genetic data has shown that Nr2e3 is required for rod photoreceptor development, but it is not known whether there is a continuing requirement for Nr2e3 in mature rods. […] To further examine the effects of PR1 at these late developmental stages, the effects of PR1 on P12 retinal explants by immunohistochemical analysis were studied (FIG. 8A). Explants from P12 Nrl-eGFP mice were cultured for 5 days in either DMSO or 1 μM PR1 containing media, and then fixed and processed for immunofluorescent labeling with anti-rhodopsin and anti-S opsin antibodies.
To determine if PR1 affects retinal cells other than photoreceptors, bipolar cells (PKCα, Chx10), amacrine cells (HuCD), and Muller glia (Sox2) were quantified in explants treated with DMSO or 1 μM PR1 for 5 DIV. […] EdU (5-ethynyl-2′-deoxyuridine) was added to the cultures to determine whether PR1 might have a similar effect.
as §1
Retinal explants or eyecups were fixed in 4% PFA in 1×PBS for 20 minutes at room temperature and then cryoprotected in 30% sucrose in 1×PBS overnight at 4° C. Samples were embedded in OCT (Sakura Finetek), frozen on dry ice, and then sectioned at 14-16 μm on a cryostat (Leica). Slides were blocked with a solution containing 10% Normal Horse Serum (Vector Labs) and 0.5% Triton X-100 (Sigma-Aldrich) in 1×PBS for 1 hour at room temperature and then stained overnight at 4° C. with primary antibodies diluted in blocking solution. Slides were washed three times with 1×PBS the following day and then incubated in secondary antibodies (Life Technologies) diluted in blocking solution for 2 hours at room temperature, stained with DAPI (Sigma-Aldrich), washed, and coverslipped using Fluoromount-G (SouthernBiotech). An Olympus FluoView FV1000 was used for confocal microscopy.

Thrb (Trβ2) = assay: Cone gene expression, Thrb (FIG. 5)

## Cc1cc(C)cc(NC(=O)CCc2nc3sc4c(c3c(=O)[nH]2)CCCC4)c1 [PR1, N-(3,5-dimethylphenyl)-3-(4-oxo-5,6,7,8-tetrahydro-3H-[1]benzothiolo[2,3-d]pyrimidin-2-yl)propanamide]
[1]; 0.1 uM
  dose-response, Nrl, Nr2e3, and Rho expression: Some effect
[1]; vs DMSO
  relative rhodopsin (Rho) expression: substantially decrease Rho expression; also recorded: decreased
[1]; vs DMSO, listed as CA88
  relative rhodopsin (Rho) expression: reducing rhodopsin expression
[1]; 2 days in culture, vs DMSO
  Crx expression: did not significantly decrease
  Gnat1 expression: decreased
  Gnb1 expression: did not significantly decrease
  Nr2e3 expression: decreased
  Nrl expression: decreased
  Pde6b expression: decreased
[1]; higher concentrations (1, 5, or 10 μM)
  dose-response, Nrl, Nr2e3, and Rho expression: statistically significant reductions
[2]; P12 explants, 1 μM, 5 days
  number of S opsin+ cells in the ONL: increase in the number of S opsin+ cells
  rhodopsin staining in Nrl-GFP-positive rods: dramatic decrease in rhodopsin staining
[2]; P12 explants, 5 DIV, EdU in media
  number of EdU labeled cells: increase in the number of EdU labeled cells
[2]; explants, 1 μM, 5 DIV
  migration of the Muller glial (Sox2+) nuclei into the ONL: increase in the migration
[2]; explants, 1 μM, 5 DIV, vs DMSO
  bipolar cells (PKCα, Chx10), amacrine cells (HuCD), and Muller glia (Sox2): No differences
Thrb (Trβ2)
  cone gene expression, Thrb (Trβ2): increase
